Measured values taken from patent US7192948B2, “Bicyclic heterocycles as HIV integrase inhibitors” (priority 2004, dated 2007).

Experiments:
HIV-integrase = target: T1, HIV-integrase (Human immunodeficiency virus type 1 group M subtype B, UniProt P12497); assay: HIV-Integrase Inhibition Activity (SPA bead strand transfer assay); assay type: biochemical; conditions: recombinant integrase, in vitro
T1 construct: Recombinant integrase (0.26 ng) was incubated with the beads
Description: HIV-Integrase Inhibition Activity. To evaluate in-vitro activity against HIV-integrase, 5 pmole of biotin labeled substrate DNA was bound to 100 μg of Streptavidin coated PVT SPA beads (Amersham Pharmacia Biotech). Recombinant integrase (0.26 ng) was incubated with the beads for 90 min at 37° C. Unbound enzyme was removed by washing the complex followed by addition of inhibitors and 0.1 fmol of P33 labeled target DNA. The reaction was stopped by adding EDTA to a final concentration of […]. Samples were counted in TopCountNXT (Packard) and the CPM was used as a measure of integration. The reaction condition was as described in A. Engelman and R. Craigie, J. Virol. 69, 5908–5911 (1995). The sequences of substrate and target DNA were described in Nucleic Acid Research 22, 1121–1122 (1994).

In the case of Cc1ccc(CNC(=O)c2nc3n(c(=O)c2O)CC(=O)N3)cc1C [Example 5, 6-Hydroxy-2,5-dioxo-1,2,3,5-tetrahydro-imidazo[1,2-a]pyrimidine-7-carboxylic acid 3,4-dimethyl-benzylamide], the IC50 (HIV-integrase) is reported as 16 to 49000 nM and the melting point is reported as 287 °C (dec.).
CN1C(=O)CCn2c1nc(C(=O)NCc1ccc(Cl)c(Cl)c1)c(O)c2=O [Example 19, N-(3,4-Dichlorobenzyl)-3-hydroxy-9-methyl-4,8-dioxo-6,7,8,9-tetrahydro-4H-pyrimido[1,2-a]pyrimidine-2-carboxamide] showed an IC50 (HIV-integrase) of 4 to 15 nM and a melting point of 198 to 201 °C.
Work on CN1C(=O)CCn2c1nc(C(=O)NCc1ccc(F)c(Cl)c1)c(O)c2=O [Example 21, N-(3-Chloro-4-fluorobenzyl)-3-hydroxy-9-methyl-4,8-dioxo-6,7,8,9-tetrahydro-4H-pyrimido[1,2-a]pyrimidine-2-carboxamide] yielded an IC50 (HIV-integrase) of 4 to 15 nM and a melting point of 201 °C.
With O=C1CCn2c(nc(C(=O)NCc3ccc(Cl)c(Cl)c3)c(O)c2=O)N1 [Example 7, 3-Hydroxy-4,8-dioxo-6,7,8,9-tetrahydro-4H-pyrimido[1,2-a]pyrimidine-2-carboxylic acid 3,4-dichloro-benzylamide] the IC50 (HIV-integrase) was 4 to 15 nM and the melting point was > 300 °C (dec.).
Cc1cc(CNC(=O)c2nc3n(c(=O)c2O)CCC(=O)N3C)ccc1F [Example 20, N-(4-Fluoro-3-methylbenzyl)-3-hydroxy-9-methyl-4,8-dioxo-6,7,8,9-tetrahydro-4H-pyrimido[1,2-a]pyrimidine-2-carboxamide] showed an IC50 (HIV-integrase) of 4 to 15 nM and a melting point of 216 °C.
With O=C1Cn2c(nc(C(=O)NCc3ccc(Cl)c(Cl)c3)c(O)c2=O)N1 [Example 2, 6-Hydroxy-2,5-dioxo-1,2,3,5-tetrahydro-imidazo[1,2-a]pyrimidine-7-carboxylic acid 3,4-dichloro-benzylamide] the IC50 (HIV-integrase) was 4 to 15 nM and the melting point was 280 °C (dec.).
In the case of Cc1cc(CNC(=O)c2nc3n(c(=O)c2O)CC(=O)N3)ccc1F [Example 3, 6-Hydroxy-2,5-dioxo-1,2,3,5-tetrahydro-imidazo[1,2-a]pyrimidine-7-carboxylic acid 4-fluoro-3-methyl-benzylamide], the IC50 (HIV-integrase) is reported as 16 to 49000 nM and the melting point is reported as 287 °C (dec.).
In the case of CN1C(=O)CCn2c1nc(C(=O)NCc1ccc(F)cc1)c(O)c2=O [Example 18, N-(4-Fluorobenzyl)-3-hydroxy-9-methyl-4,8-dioxo-6,7,8,9-tetrahydro-4H-pyrimido[1,2-a]pyrimidine-2-carboxamide], the IC50 (HIV-integrase) is reported as 16 to 49000 nM and the melting point is reported as 176 to 178 °C.
For Cc1cc(CNC(=O)c2nc3n(c(=O)c2O)CCC(=O)N3)ccc1F [Example 8, 3-Hydroxy-4,8-dioxo-6,7,8,9-tetrahydro-4H-pyrimido[1,2-a]pyrimidine-2-carboxylic acid 4-fluoro-3-methyl-benzylamide], the IC50 (HIV-integrase) was 4 to 15 nM and the melting point was > 300 °C.
For O=C1Cn2c(nc(C(=O)NCc3ccc(F)c(Cl)c3)c(O)c2=O)N1 [Example 4, 6-Hydroxy-2,5-dioxo-1,2,3,5-tetrahydro-imidazo[1,2-a]pyrimidine-7-carboxylic acid 3-chloro-4-fluoro-benzylamide], the IC50 (HIV-integrase) was 16 to 49000 nM and the melting point was 295 °C (dec.).
With Cc1ccc(CNC(=O)c2nc3n(c(=O)c2O)CCC(=O)N3C)cc1C [Example 22, N-(3,4-Dimethylbenzyl)-3-hydroxy-9-methyl-4,8-dioxo-6,7,8,9-tetrahydro-4H-pyrimido[1,2-a]pyrimidine-2-carboxamide] the IC50 (HIV-integrase) was 16 to 49000 nM and the melting point was 181 °C.
For O=C1CCn2c(nc(C(=O)NCc3ccc(F)cc3)c(O)c2=O)N1 [Example 6, 3-Hydroxy-4,8-dioxo-6,7,8,9-tetrahydro-4H-pyrimido[1,2-a]pyrimidine-2-carboxylic acid 4-fluoro-benzylamide], the IC50 (HIV-integrase) was 16 to 49000 nM and the melting point was > 300 °C (dec.).
O=C(NCc1ccc(F)cc1)c1nc2n(c(=O)c1O)CC(=O)N1CCCN21 [Example 34, 7-Hydroxy-4,6-dioxo-2,3,4,5-tetrahydro-1H,6H-3a,5a,9,9b-tetraaza-benz[e]indene-8-carboxylic acid 4-fluoro-benzylamide] showed an IC50 (HIV-integrase) of 16 to 49000 nM.
